Data from patent publication US8586505B2 (SDS Biotech K. K., priority 2009, dated 2013).

What was measured:
Assay type in all cases: in vivo
Phytophthora infestans = assay: whole plant or invertebrate; settings: in Solanum lycopersicum, 96 h, read-out: Determination of control effect (preventive value)
[1] = system: Pseudoperonospora cubensis; assay: Test of examining control effect on Pseudoperonospora cubensis (potted cucumber plants); settings: 96 h, 10% wettable powder adjusted to 125 ppm, 15 ml/pot sprayed on potted cucumber plants one day before spray inoculation, assessed after 1 day wet chamber and 3 days greenhouse, read-out: Determination of control effect (preventive value) on Pseudoperonospora cubensis
Protocol: (§1) Calculation of Preventive Value: Preventive value={(untreated lesion area rate−treated lesion area rate)/untreated lesion area rate}×100
(§2) Using the thus calculated preventive value, the control effect of each compound was determined in accordance with the following standards.
(§3) High control effect: 100%≧preventive value≧60%
(§4) Low control effect: 60%>preventive value≧0%
Using a spray gun, an agent solution prepared by adjusting a 10% wettable powder of each sample compound to 125 ppm (hereinafter referred to as a “sample agent solution”) was sprayed to potted cucumber plants (variety: Sagamihanjiro, 2.5 leave stage) in a concentration of 15 ml/pot. One day after the spraying, a conidial suspension of Pseudoperonospora cubensis (conidial concentration: 1.0×10^4 cells/ml) was applied to the plants by spray inoculation. After completion of the inoculation, the plants were left at 21° C. under wet chamber conditions for 1 day, and were then left in a greenhouse for 3 days, so that they were fully infected with the aforementioned disease. Thereafter, the disease level on each leaf was compared with that on an untreated leaf, and the control effect of each compound was determined in the same manner as in Example 3(1).

Sphaerotheca fuliginea = assay: Test of examining control effect on Sphaerotheca fuliginea (potted cucumber plants); settings: Podosphaera fuliginea, 336 h; 10% wettable powder adjusted to 125 ppm, 15 ml/pot sprayed on potted cucumber plants one day before spray inoculation; assessed after 14 days in greenhouse; read-out: Determination of control effect (preventive value) on Sphaerotheca fuliginea
Protocol: as §1, §2, §3, §4
Using a spray gun, an agent solution prepared by adjusting a 10% wettable powder of each sample compound to 125 ppm (hereinafter referred to as a “sample agent solution”) was sprayed to potted cucumber plants (variety: Sagamihanjiro, 2nd leave stage) in a concentration of 15 ml/pot. One day after the spraying, a conidial suspension of Sphaerotheca fuliginea (conidial concentration: 1.0×10^5 cells/ml) was applied to the plants by spray inoculation. The plants were left in a greenhouse for 14 days, so that they were fully infected with the aforementioned disease. Thereafter, the disease level on each leaf was compared with that on an untreated leaf, and the control effect of each compound was determined in the same manner as in Example 3(1).

| SMILES | pest or weed control at 125 ppm (Phytophthora infestans) [%] | pest or weed control at 125 µg/mL [1] [%] | pest or weed control at 125 µg/mL (Sphaerotheca fuliginea) [%] |
| --- | --- | --- | --- |
| CC(CC#Cc1ccc(C(F)(F)F)cc1)Nc1ncnc2ccccc12 (centres unmarked) [compound 275] | 60 to 100 | 60 to 100 | 60 to 100 |
| FCc1ccccc1C#CCCNc1ncnc2ccccc12 [compound 99] | 60 to 100 | 60 to 100 | 60 to 100 |
| CC(C)c1ccccc1C#CCCNc1ncnc2ccccc12 [compound 104] | 60 to 100 | 60 to 100 | 60 to 100 |
| C(#Cc1ccccn1)CCNc1ncnc2sccc12 [compound 55] | 60 to 100 | 60 to 100 |  |
| N#Cc1ccccc1C#CCCNc1ncnc2ccccc12 [compound 102] | 60 to 100 | 60 to 100 | 60 to 100 |
| CCOC(OCC)c1ccccc1C#CCCNc1ncnc2ccccc12 [compound 150] | 0 to 60 | 0 to 60 | 0 to 60 |
| C(#Cc1ncccn1)CCNc1ncnc2sccc12 [compound 58] | 60 to 100 | 60 to 100 | 0 to 60 |
| N#Cc1ccccc1C#CCCNc1ncnc2sccc12 [compound 35] | 60 to 100 | 60 to 100 |  |
| N#Cc1ccc(C#CCCNc2ncnc3sccc23)cc1 [compound 37] | 60 to 100 | 60 to 100 |  |
| C(#CCc1ccccc1)CCNc1ncnc2sccc12 [compound 9] | 0 to 60 | 60 to 100 | 60 to 100 |
| O=Cc1ccccc1C#CCCNc1ncnc2sccc12 [compound 48] | 60 to 100 | 60 to 100 |  |
| Cc1ncnc(NC(C)CC#Cc2ccc(Cl)cc2C(F)(F)F)c1Br (centres unmarked) [compound 387] | 0 to 60 | 60 to 100 | 60 to 100 |
| C[Si](C)(C)C#CCCNc1ncnc2ccccc12 [compound 87] | 60 to 100 | 60 to 100 | 60 to 100 |
| COCc1cccc(C#CCCNc2ncnc3ccccc23)c1 [compound 135] | 0 to 60 | 60 to 100 | 0 to 60 |
| C(#Cc1cncc2ccccc12)CCNc1ncnc2ccccc12 [compound 192] | 0 to 60 | 60 to 100 | 0 to 60 |
| FC(F)(F)c1ccccc1C#CCCNc1ncnc2ccccc12 [compound 101] | 60 to 100 | 60 to 100 | 60 to 100 |
| COCc1ccccc1C#CCCNc1ncnc2c(Cl)cccc12 [compound 311] | 60 to 100 | 60 to 100 | 60 to 100 |
| CN(C)S(=O)(=O)c1ccc(C#CCCNc2ncnc3ccccc23)cc1 [compound 122] | 0 to 60 | 60 to 100 | 0 to 60 |
| OCc1ccccc1C#CCCNc1ncnc2sccc12 [compound 44] | 60 to 100 | 60 to 100 |  |
| CC(CC#Cc1ccc(C#N)cc1C(F)(F)F)Nc1ncnc2sccc12 (centres unmarked) [compound 260] | 60 to 100 | 60 to 100 | 60 to 100 |
| Fc1ccc(C(F)(F)F)c(C#CCCNc2ncnc3ccccc23)c1 [compound 168] | 60 to 100 | 60 to 100 | 60 to 100 |
| Cc1ccsc1C#CCCNc1ncnc2ccccc12 [compound 208] | 60 to 100 | 60 to 100 | 60 to 100 |
| COCc1ccccc1C#CCCNc1ncnc2ccc(F)cc12 [compound 317] | 60 to 100 | 60 to 100 | 60 to 100 |
| N#Cc1cc(C(F)(F)F)ccc1C#CCCNc1ncnc2ccccc12 [compound 187] | 0 to 60 | 60 to 100 | 0 to 60 |
| Clc1ccccc1C#CCCNc1ncnc2sccc12 [compound 14] | 0 to 60 | 60 to 100 | 60 to 100 |
| CC(CC#Cc1ccccc1CO)Nc1ncnc2sccc12 (centres unmarked) [compound 243] | 60 to 100 | 60 to 100 | 60 to 100 |

| SMILES | pest or weed control at 125 ppm (Phytophthora infestans) [%] | pest or weed control at 125 µg/mL [1] [%] | pest or weed control at 125 µg/mL (Sphaerotheca fuliginea) [%] |
| --- | --- | --- | --- |
| CN(C)c1ccc(C#CCCNc2ncnc3ccccc23)cc1 [compound 159] | 0 to 60 | 60 to 100 | 60 to 100 |
| COc1ccccc1C#CCC(C)Nc1ncnc2sccc12 (centres unmarked) [compound 236] | 0 to 60 | 60 to 100 | 60 to 100 |
| C[Si](C)(C)C#CCCNc1ncnc2sccc12 [Compound No. 2, 4-(4-Trimethylsilanyl-3-butynylamino)thieno[2,3-d]pyrimidine] | 60 to 100 | 60 to 100 | 60 to 100 |
| CC(CC#Cc1ccccc1S(C)(=O)=O)Nc1ncnc2ccccc12 (centres unmarked) [compound 290] | 60 to 100 | 60 to 100 | 60 to 100 |
| C(#Cc1ccnc2ccccc12)CCNc1ncnc2ccccc12 [compound 189] | 0 to 60 | 60 to 100 | 60 to 100 |
| O=Cc1nc(C#CCCNc2ncnc3sccc23)cs1 [compound 69] | 60 to 100 | 60 to 100 | 0 to 60 |
| Clc1ccccc1C#CCCNc1ncnc2ccccc12 [compound 97] | 60 to 100 | 60 to 100 | 60 to 100 |
| OCC(CC#Cc1ccccc1)Nc1ncnc2ccccc12 (centres unmarked) [compound 299] | 60 to 100 | 60 to 100 | 0 to 60 |
| C(#Cc1ccoc1)CCNc1ncnc2sccc12 [compound 52] | 0 to 60 | 60 to 100 |  |
| COCc1ccccc1C#CCCNc1ncnc2c(C)csc12 [compound 50] | 60 to 100 | 60 to 100 |  |
| Cc1ccc(C#CCC(C)Nc2ncnc3sccc23)c(Cl)c1 (centres unmarked) [compound 255] | 60 to 100 |  | 60 to 100 |
| CC(CC#Cc1c(Cl)cc(F)cc1Cl)Nc1ncnc2sccc12 (centres unmarked) [compound 261] |  | 60 to 100 | 60 to 100 |
| N#Cc1cccc(C#CCCNc2ncnc3sccc23)c1 [compound 36] | 60 to 100 | 60 to 100 |  |
| C(#Cc1cccs1)CCNc1ncnc2sccc12 [compound 53] | 0 to 60 | 60 to 100 |  |
| COCc1ccccc1C#CCCNc1ncnc2ccsc12 [compound 49] | 60 to 100 | 60 to 100 |  |
| FCc1ccccc1C#CCCNc1ncnc2sccc12 [compound 47] | 60 to 100 | 60 to 100 |  |
| CC(=O)Nc1ccccc1C#CCCNc1ncnc2ccccc12 [compound 160] | 0 to 60 | 0 to 60 |  |
| CCOCc1ccccc1C#CCCNc1ncnc2sccc12 [compound 46] | 60 to 100 | 60 to 100 |  |
| Cc1cc(C)c(C#CCC(C)Nc2ncnc3sccc23)c(C)c1 (centres unmarked) [compound 263] |  | 60 to 100 | 60 to 100 |
| COCc1ccccc1C#CCCNc1ncnc2scc(C)c12 [compound 51] | 60 to 100 | 60 to 100 |  |
| FC(F)(F)Oc1ccc(C#CCCNc2ncnc3sccc23)cc1 [compound 34] | 60 to 100 | 60 to 100 |  |
| FC(F)(F)Oc1cccc(C#CCCNc2ncnc3sccc23)c1 [compound 33] | 60 to 100 | 60 to 100 |  |
| COCc1ccccc1C#CCCNc1ncnc2sccc12 [compound 45] | 60 to 100 | 60 to 100 |  |
| C(#Cc1ccsc1)CCNc1ncnc2sccc12 [compound 54] | 0 to 60 | 60 to 100 |  |
| FC(F)(F)Oc1ccccc1C#CCCNc1ncnc2sccc12 [compound 32] | 60 to 100 | 60 to 100 |  |
